The values below are quoted from earlier work in patent US5480983A, “Adenosine derivatives, preparation methods and pharmaceutical compositions containing them” (Laboratoires UPSA, priority 1992, dated 1996).

Structures are written as SMILES.

In one data set the test system is platelet aggregation. As to conditions: as described in Journal of Medicinal Chemistry; cited from earlier work.
The conditions of data set [1]: as specified in Biochemical Pharmacology; cited from earlier work.

As to `OC[C@H]1O[C@@H](n2cnc3c(NCCc4c[nH]c5ccccc45)ncnc32)[C@H](O)[C@@H]1O` [derivative A, N-6-[2-(indol-3-yl)ethyl]adenosine], the “platelet aggregation inhibiting activity” value with platelet aggregation is “platelet aggregation inhibiting activity”.
For `COc1ccc2[nH]cc(CCNc3ncnc4c3ncn4[C@@H]3O[C@H](CO)[C@@H](O)[C@H]3O)c2c1` [derivative B], the antilipolytic activity result in data set [1] is “antilipolytic activity”.
